Legend:
[1] = test system: veratrine-evoked release of glutamate from rat brain slices; assay: tissue or blood; type: cell-based; details: P95 limits in parentheses
Method: (§1) Compounds of Formula (I) were tested for their effect on veratrine-evoked release of glutamate from rat brain slices according to the protocol described in Epilepsia 27(5): 490-497, 1986. The protocol for testing for inhibition of DHFR activity was a modification of that set out in Biochemical Pharmacology Vol. 20 pp 561-574, 1971.

Rat Liver DHFR = target: T1, Rat Liver DHFR (Rattus norvegicus, UniProt Q920D2); assay: biochemical; details: DHFR enzyme activity, P95 limits in parentheses
T1 sequence (Q920D2 1-187): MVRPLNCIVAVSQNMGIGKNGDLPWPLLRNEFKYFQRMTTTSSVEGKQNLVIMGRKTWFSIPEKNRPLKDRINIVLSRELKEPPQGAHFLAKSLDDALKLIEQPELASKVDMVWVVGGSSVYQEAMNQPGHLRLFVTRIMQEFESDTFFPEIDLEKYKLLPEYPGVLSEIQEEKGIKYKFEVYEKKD
Method: as §1

[2] = test system: release of the excitatory amino acid glutamate; details: statement in words; Leach et al Epilepsia 27, 490-497 1986; Miller et al 1987; cited from earlier work
[3] = test system: release of the excitatory amino acid aspartate; details: statement in words; Leach et al Epilepsia 27, 490-497 1986; Miller et al 1987; cited from earlier work
[4] = Toxicology, once daily intravenous administration to Wistar rats; details: rat, in vivo, dose levels of upto 15 mg/kg/day, read-out: no observed effect dose
Method: The compound of Example 1 has been administered intravenously to groups of six male and six female Wistar rats once daily at dose levels of upto 15 mg/kg/day. The no observed effect dose was 2.5 mg/kg/day.

[5] = Duration of action / clearance from the central nervous system (statement); details: statement in words
in vivo = assay: in vivo; design: species or system dogs; details: dog
Method: (§2) The compound of Example 2, has been tested in both rats and dogs. In rats the no observed effect dose was 2.5 mg/kg/day and in dogs, the no observed effect dose was 14 mg/kg/day.

Toxicology in rats = details: rat, in vivo, read-out: no observed effect dose
Method: as §2

Compound	IC50 [1] [µM]	IC50 (Rat Liver DHFR) [µM]	further results
Nc1nc(N)c(-c2cc(Cl)ccc2Cl)c(C(F)(F)F)n1 [Example 28, 2,4-Diamino-5-(2,5-dichlorophenyl)-6-trifluoromethylpyrimidine]	4.6	46.1	
Nc1ncc(-c2cccc3ccccc23)c(N)n1 [Example 17, 2,4-Diamino-5-(1-naphthyl)pyrimidine]	2.4	4.9	
Nc1ncc(-c2cccc(Cl)c2Cl)c(N)n1 [Example 21, 2,4-Diamino-5-(2,3-dichlorophenyl)pyrimidine]	11.5	16	
Nc1nc(N)c(-c2cccc(Cl)c2Cl)c(CF)n1 [Example 18, 2,4-Diamino-5-(2,3-dichlorophenyl)-6-fluoromethylpyrimidine]	< 10	~100	
Nc1nnc(-c2cccc(Cl)c2Cl)c(N)n1 [lamotrigine, 3,5-diamino-6-(2,3-dichlorophenyl)-1,2,4-triazine]			inhibition of the release of glutamate [2]: shown to inhibit the release; inhibition of the release of aspartate [3]: shown to inhibit the release
CN1CCN(c2nc(N)c(-c3cc(Cl)cc(Cl)c3Cl)c(C(F)(F)F)n2)CC1 [Example 1, 4-Amino-2-(4-methylpiperazin-1-yl)-5-(2,3,5-trichlorophenyl)-6-trifluoromethylpyrimidine]	1.18	> 100	NOAEL [4]: 2.5 mg/kg/day
COCc1nc(N)nc(N)c1-c1cc(Cl)cc(Cl)c1Cl [Example 2, 2,4-Diamino-5-(2,3,5-trichlorophenyl)-6-methoxymethylpyrimidine]	0.56	33	clearance from the central nervous system [5]: cleared from the central nervous system rapidly; NOAEL (in vivo): 14 mg/kg/day; NOAEL (Toxicology in rats): 2.5 mg/kg/day
Nc1ncc(-c2cc(Cl)c([N+](=O)[O-])c(Cl)c2Cl)c(N)n1 [Example 5, 2,4-Diamino-5-(4-nitro-2,3,5-trichlorophenyl)pyrimidine]	3.5	~100	
CN(C)c1nc(N)c(-c2cc(Cl)cc(Cl)c2Cl)c(C(F)(F)F)n1 [Example 8, 4-Amino-2-N,N-dimethylamino-5-(2,3,5-trichlorophenyl)-6-trifluoromethylpyrimidine]	< 10	> 10	
Nc1nc(N)c(-c2cc(Cl)cc(Cl)c2Cl)c(C(F)(F)F)n1 [Example 4, 2,4-Diamino-5-(2,3,5-trichlorophenyl)-6-trifluoromethylpyrimidine]	0.33	> 100	
Nc1nc(N)c(-c2cccc(Cl)c2Cl)c(C(F)(F)F)n1 [Example 14, 2,4-Diamino-5-(2,3-dichlorophenyl)-6-trifluoromethylpyrimidine]	3.1	> 100	
CN(C)c1ncc(-c2cc(Cl)cc(Cl)c2Cl)c(N)n1 [Example 10, 4-Amino-2-N,N-dimethylamino-5-(2,3,5-trichlorophenyl)pyrimidine]	< 10	> 100	
Nc1ncc(-c2ccccc2Cl)c(N)n1 [Example 23, 2,4-Diamino-5-(2-chlorophenyl)pyrimidine]	8.7	20.9	
Nc1nc(N2CCOCC2)ncc1-c1cc(Cl)cc(Cl)c1Cl [Example 9, 4-Amino-2-N-morpholino-5-(2,3,5-trichlorophenyl)-pyrimidine]	< 10	> 100	
CN1CCN(c2ncc(-c3ccc(Cl)cc3Cl)c(N)n2)CC1 [Example 27, 2-(4-methylpiperazin-1-yl)-4-amino-5-(2,4-dichlorophenyl)pyrimidine]	~10	> 100	
Nc1nc(N2CCOCC2)nc(C(F)(F)F)c1-c1cc(Cl)cc(Cl)c1Cl [Example 7, 4-Amino-2-N-morpholino-5-(2,3,5-trichlorophenyl)-6-trifluoromethylpyrimidine]	< 10	> 10	
Nc1nc(N)c(-c2ccc(Cl)cc2Cl)c(COCc2ccccc2)n1 [Example 26, 6-Benzyloxymethyl-2,4-diamino-5-(2,4-dichlorophenyl)pyrimidine]	~3	~10	
Nc1nc(N)c(-c2ccc(Cl)cc2Cl)c(C(F)(F)F)n1 [Example 25, 2,4-Diamino-5-(2,4-dichlorophenyl)-6-trifluoromethylpyrimidine]	4.1	> 100	
COCc1nc(N)nc(N)c1-c1cccc(Cl)c1Cl [Example 16, 2,4-Diamino-5-(2,3-dichlorophenyl)-6-methoxymethylpyrimidine]	3.2	> 100	
Cc1nc(N)nc(N)c1-c1ccccc1Cl [Example 22, 2,4-Diamino-5-(2-chlorophenyl)-6-methyl-pyrimidine]	2.8	23.8	
CSCc1nc(N)nc(N)c1-c1cccc(Cl)c1Cl [Example 20, 2,4-Diamino-5-(2,3-dichlorophenyl)-6-methylthiomethylpyrimidine]	4.2	17.5	
Cc1nc(N2CCN(C)CC2)nc(N)c1-c1cc(Cl)cc(Cl)c1Cl [Example 11, 4-Amino-6-methyl-2-(4-methylpiperazin-1-yl)-5-(2,3,5-trichlorophenyl)pyrimidine]	4.8	> 100	
Cc1nc(N(C)C)nc(N)c1-c1cc(Cl)cc(Cl)c1Cl [Example 13, 4-Amino-2-(N,N-dimethylamino)-6-methyl-5-(2,3,5-trichlorophenyl)pyrimidine]	< 10	> 100	
Nc1nc(N)c(-c2cccc(Cl)c2Cl)c(COc2ccccc2)n1 [Example 19, 2,4-Diamino-5-(2,3-dichlorophenyl)-6-phenoxymethylpyrimidine]	2.6	> 100	
Cc1nc(N)nc(N)c1-c1cc(Cl)cc(Cl)c1Cl [Example 6, 2,4-Diamino-5-(2,3,5-trichlorophenyl)-6-methylpyrimidine]	0.7	0.51	
Nc1ncc(-c2cc(Cl)cc(Cl)c2Cl)c(N)n1 [Example 29, 2,4-Diamino-5-(2,3,5-trichlorophenyl)pyrimidine]	1.57	0.53	
Cc1nc(N)nc(N)c1-c1cccc(Cl)c1Cl [Example 15, 2,4-Diamino-5-(2,3-dichlorophenyl)-6-methylpyrimidine]	2.7	8.7	
Cc1nc(N)nc(N)c1-c1cc(Cl)c([N+](=O)[O-])c(Cl)c1Cl [Example 12, 2,4-diamino-6-methyl-5-(2,3,5-trichloro-4-nitrophenyl) pyrimidine]	< 10	> 100	
CCc1nc(N)nc(N)c1-c1ccccc1Cl [Example 24, 2,4-Diamino-5-(2-chlorophenyl)-6-ethylpyrimidine]	2.1	15.1	
